Measured values: article PMC8112869, “Therapeutic inhibition of keratinocyte TRPV3 sensory channel by local anesthetic dyclonine” (eLife, 2021)

What was measured:
[1] = tested on: T-Rex 293 cells expressing TRPV3 G573S; assay: Cell death analysis by flow cytometry (propidium iodide), cells expressing G573S mutant; type: cell-based, Homo sapiens
Description: (§1) T-Rex 293 cells were grown in DMEM containing 4.5 mg/ml glucose, 10% (vol/vol) FBS, 50 units/ml penicillin, 50 μg/ml streptomycin, and blasticidin S (10 μg/ml), and were incubated at 37°C in a humidified incubator gassed with 5% CO2. Transfections were performed in wells of a 24-well plate using lipofectamine 2000 (Invitrogen). […] Expression of GFP fluorescence detected by an epifluorescence microscope was used as an indicator of gene expression. After treatments with the compounds for 12 hr, cells were collected, washed twice with PBS, resuspended, and then dyed with propidium iodide (PI, Thermo Fisher Scientific) in the dark according to the manufacturer’s instructions. The membrane integrity of the cells was assessed using a BD FACSCelesta flow cytometer equipped with BD Accuri C6 software (BD Biosciences, USA).

[2] = tested on: T-Rex 293 cells expressing WT TRPV3; assay: Cell death analysis by flow cytometry (propidium iodide), cells expressing WT TRPV3; type: cell-based, Homo sapiens
Description: as §1

mouse TRPV3 = target: T1, mouse TRPV3 (Mus musculus, UniProt Q8K424); assay: Single-channel inside-out patch recording of TRPV3 from HEK 293T cells; type: cell-based; parameters: expressed in transfected cells; host or cells: HEK 293T
T1 sequence (Q8K424 1-791): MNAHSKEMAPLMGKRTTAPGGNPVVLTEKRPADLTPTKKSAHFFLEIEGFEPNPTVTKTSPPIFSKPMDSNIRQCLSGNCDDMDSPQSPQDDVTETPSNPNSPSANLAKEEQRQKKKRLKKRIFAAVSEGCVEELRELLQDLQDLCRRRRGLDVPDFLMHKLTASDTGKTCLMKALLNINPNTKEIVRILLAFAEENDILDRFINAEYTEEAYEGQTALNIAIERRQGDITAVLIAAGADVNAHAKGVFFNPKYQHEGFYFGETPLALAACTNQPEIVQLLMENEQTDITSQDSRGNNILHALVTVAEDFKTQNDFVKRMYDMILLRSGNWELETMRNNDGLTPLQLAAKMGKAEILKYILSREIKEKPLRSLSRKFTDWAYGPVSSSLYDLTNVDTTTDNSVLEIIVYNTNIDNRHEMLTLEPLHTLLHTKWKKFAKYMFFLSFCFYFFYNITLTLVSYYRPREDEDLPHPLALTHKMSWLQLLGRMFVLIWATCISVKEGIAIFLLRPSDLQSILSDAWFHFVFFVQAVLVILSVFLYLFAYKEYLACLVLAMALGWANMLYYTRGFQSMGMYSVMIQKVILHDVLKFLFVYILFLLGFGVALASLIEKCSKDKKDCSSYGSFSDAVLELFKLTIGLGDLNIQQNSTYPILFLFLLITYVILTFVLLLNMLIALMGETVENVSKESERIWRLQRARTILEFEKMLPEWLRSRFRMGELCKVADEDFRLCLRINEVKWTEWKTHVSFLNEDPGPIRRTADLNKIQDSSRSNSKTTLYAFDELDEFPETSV
Excerpt: Conventional whole-cell and excised patch-clamp recording methods were used. For the recombinant expressing system, green fluorescent EGFP was used as a surface marker for gene expression. Recording pipettes were pulled from borosilicate glass capillaries (World Precision Instruments) and fire-polished to a resistance between 2 and 4 MΩ when filled with internal solution containing (in mM) 140 CsCl, 2.0 MgCl2, 5 EGTA, and 10 HEPES, pH 7.4 (adjusted with CsOH). Bath solution contained (in mM): 140 NaCl, 5 KCl, 3 EGTA, and 10 HEPES, pH 7.4 adjusted with NaOH. For recordings in keratinocytes, the bath saline consisted of (in mM) 140 NaCl, 5 KCl, 2 MgCl2, 2 CaCl2, 10 glucoses, and 10 HEPES, pH 7.4 adjusted with NaOH, and the pipette solution contained (in mM) 140 CsCl, 5 EGTA, and 10 HEPES, pH 7.3 adjusted with CsOH. For single-channel recordings, the pipette solution and bath solution were symmetrical and contained (in mM) 140 NaCl, 5 KCl, 3 EGTA, and 10 HEPES, pH 7.4. Isolated cells were voltage clamped and held at –60 mV using an EPC10 amplifier with the Patchmaster software (HEKAElectronics, Lambrecht, Germany). For a subset of recordings, currents were amplified using an Axopatch 200B amplifier (Molecular Devices, Sunnyvale, CA) and recorded through a BNC-2090/MIO acquisition system (National Instruments, Austin, TX) using QStudio developed by Dr. Feng Qin at State University of New York at Buffalo. Whole-cell recordings were typically sampled at 5 kHz and filtered at 1 kHz, and single-channel recordings were sampled at 25 kHz and filtered at 10 kHz. The compensation of pipette series resistance and capacitance was compensated using the built-in circuitry of the amplifier (>80%) to reduce voltage errors. Exchange of external solution was performed using a gravity-driven local perfusion system. As determined by the conductance tests, the solution around a patch under study was fully controlled by the application of a flow rate of 100 μl/min or greater. Dyclonine hydrochloride, MTSET and carvacrol were purchased from MCE (MedChemExpress). Unless otherwise noted, all chemicals were purchased from Sigma (Millipore Sigma, St. Louis, MO). Water-insoluble reagents were dissolved in pure ethanol or DMSO to make a stock solution and diluted into the recording solution at the desired final concentrations before the experiment. […] In the scratching behavior experiments, carvacrol was first dissolved in 10% ethanol and then diluted in normal saline before administration. All experiments except those for heat activation were performed at room temperature (22–24℃).

[3] = tested on: T-Rex 293 cells expressing TRPV3 G573C; assay: Cell death analysis by flow cytometry (propidium iodide), cells expressing G573C mutant; type: cell-based, Homo sapiens
Description: as §1

[4] = dyclonine (50 μM) added to 2-APB (30 μM), averaged
[5] = dyclonine (50 μM) or 2-APB (30 μM) alone, averaged from seven experiments

unitary conductance (mouse TRPV3; 10 μM 2-APB with 30 μM dyclonine)	single-channel open probability (mouse TRPV3; 30 μM dyclonine with 10 μM 2-APB, +60 mV)	single-channel open probability (mouse TRPV3; 30 μM dyclonine with 10 μM 2-APB, –60 mV)	SMILES	cell death ratio [1, 4]	cell death ratio [1, 5]	cell death ratio [2, 4]	cell death ratio [3, 4]	cell death ratio [3, 5]	cell death ratio ([2]; 2-APB (30 μM) alone, 12 hr, averaged from seven experiments)	unitary conductance (mouse TRPV3; 10 μM 2-APB before dyclonine treatment)	single-channel open probability (mouse TRPV3; 10 μM 2-APB without dyclonine, +60 mV)	single-channel open probability (mouse TRPV3; 10 μM 2-APB without dyclonine, –60 mV)
179.2 ± 5.5 pS	0.12 ± 0.01	0.08 ± 0.01	CCCCOc1ccc(C(=O)CCN2CCCCC2)cc1 [dyclonine]	17.68% ± 5.66%	12.45% ± 2.54%	9.12% ± 1.42%	13.85% ± 2.49%	14.98% ± 4.40%	–	–	–	–
–	–	–	NCCOB(c1ccccc1)c1ccccc1 [2-APB, 2-aminoethoxydiphenyl borate]	–	53.60% ± 5.88%	–	–	47.91% ± 5.54%	43.73% ± 3.46%	163.6 ± 6.4 pS	0.82 ± 0.02	0.8 ± 0.02
